Measured values as given in patent US12679878B2, “CRF2 receptor agonists and their use in therapy” (SANOFI, priority 2020, dated 2026).
Values after ≈ are worked out from the molar mass of the structure shown. Read-outs that look alike come from different tables or passages of the source. Starred links: 1 amine or outer side, 2 acyl side, 3 side chain; linkers in the order of their positions; H or OH if unused. Non-standard residues stand in square brackets, D forms with d. Residues, ends and D or L forms follow the SMILES beside them. Groups on a side chain read outwards from the residue. *: point of attachment. C18 diacid = O=C(O)CCCCCCCCCCCCCCCCC(=O)*; γGlu = O=C(O)[C@H](CCC(=O)[*:2])N[*:1]; AEEA = NCCOCCOCC(=O)O; Aib = CC(C)(N)C(=O)O

Assays:
[1] = Chemical stability, purity loss by UPLC-UV after 28 days at 40° C. vs 5° C., pH 4.5 acetate buffer (Example 12); format: physicochemical; conditions: 28 days 40° C. vs 5° C.; pH 4.5, 20 mM acetate buffer; 300 μM
Protocol: The chemical stability of the compounds was assessed by storing the compounds under various conditions and then determining the loss of purity by UPLC-UV.
Prior to measuring the chemical stability of a batch of test compound, the purity of the compound was determined through UPLC/MS. For stability testing the target concentration was 300 μM pure compound. Therefore, solutions from solid samples were prepared in a pH 4.5, 20 mM acetate buffer system with a concentration of 300 μM compound based on the previously determined % purity:
At the starting point, UPLC-UV was performed by injection of 2 μl of the undiluted sample. Aliquots were then stored for 28 days at temperatures of 5 and 40° C. […] Then 2 μl samples of the undiluted supernatant were analysed with UPLC-UV. The chemical stability was calculated by the equation: [(purity after 28 days at 5° C.)−(purity after 28 days at 40° C.)]/(purity after 28 days at 5° C.)]×100%. The purity was calculated as: [(peak area compound)/(total peak area)]×100%.

rat CRF2R α receptor = experiment: cAMP agonism at rat CRF2R α receptor in A7R5 rat aortic smooth muscle cells (Example 8); format: cell-based; conditions: cAMP HTRF, A7R5 rat aortic smooth muscle cell line, 0% HSA
How it was run: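 Potency (EC50) is the concentration reaching half-maximal activation, with responses scaled so that 1000 nM urocortin 2 equals 100%. Intracellular cAMP was quantified by homogeneous time-resolved fluorescence at 665/620 nm, 1 h after lysis-buffer reagents. Compound stimulation lasted 30 min at room temperature on 2000 IBMX-treated (2 mM) cells per well in HEPES-buffered HBSS.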

human CRF2α receptor = target: T1, human CRF2α receptor (Homo sapiens, UniProt Q13324); experiment: cAMP agonism at human CRF2 α receptor in TeloHEAC cells (Example 7); format: cell-based; conditions: cAMP HTRF, TeloHEAC cells stably expressing human CRF2 α
T1 construct: expressed in transfected cells; host or cells: TeloHEAC
T1 sequence (Q13324 1-411): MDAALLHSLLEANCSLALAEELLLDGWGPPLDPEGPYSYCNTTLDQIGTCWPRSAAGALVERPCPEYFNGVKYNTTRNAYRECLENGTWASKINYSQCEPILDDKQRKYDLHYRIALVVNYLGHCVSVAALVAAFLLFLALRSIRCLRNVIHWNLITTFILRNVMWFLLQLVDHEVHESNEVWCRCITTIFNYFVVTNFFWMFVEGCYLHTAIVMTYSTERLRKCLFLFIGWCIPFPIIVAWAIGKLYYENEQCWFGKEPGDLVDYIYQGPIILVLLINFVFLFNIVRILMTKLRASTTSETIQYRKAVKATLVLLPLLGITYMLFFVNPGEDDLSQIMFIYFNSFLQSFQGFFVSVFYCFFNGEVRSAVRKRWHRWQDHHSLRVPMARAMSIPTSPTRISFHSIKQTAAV
How it was run: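 Steps: thaw and wash cells; suspend in 1×HBSS, 20 mM HEPES, 0 or 0.1% HSA, 2 mM IBMX; add compound, 30 min RT; lyse with HTRF reagents, 1 h; read 665/620 nm. EC50 calculated, E% versus 1000 nM UCN2.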

[2] = Physical stability, dynamic light scattering assay (Example 15); format: physicochemical; conditions: Buffer A (100 mM acetate, pH 4.5); for Apparent Rh [nm] 4 weeks / Scattering Intensity (I) [%] 4 weeks: 4 weeks at 40° C.
Protocol: The physical stability of the compounds was also assessed using a dynamic light scattering assay.
In the present study, the physical stability of test compounds was assessed by determining the apparent hydrodynamic radius (Rh), the scattering intensity (I) and mass contribution (M) after synthesis (0 weeks) and after storage for 4 weeks at 40° C.
For each solution of test compound, the hydrodynamic radius Rh and the diffusion constant D (related via the Stokes-Einstein equation) were determined as an average over triplicates. Both parameters were determined at different compound concentrations (e.g., Rh1 and D1: 1 mg/ml and Rh5 and D5: 5 mg/ml, Rh10 and D10: 10 mg/mL) in the same buffer system. The difference of these parameters between low and high peptide concentration is a surrogate for the DLS interaction parameter kD. […] In addition, the hydrodynamic radius Rh and the corresponding Scattering Intensity (%) were determined as an average over duplicates. The target concentration was 300 μM. Therefore, solutions from solid samples were prepared in a buffer system with a concentration of 300 μM compound based on the previously determined % purity.
DLS measurements were performed on a DynaPro Plate Reader I (Wyatt Technology, Santa Barbara, CA, US) with an 837 nm laser light source at a scattering angle of 150°. The data were collected and processed with Dynamics V 7.8.1.3 or 7.8.2.18 software provided by Wyatt Technology.
Hydrodynamic radii were determined with non-negatively constrained least squares (NNLS) methods using DYNALS algorithms with regularization fit. […] Samples were tempered over 1 hour at +25° C. and visually inspected before analysis.
Samples were mixed with the aid of a pipet tip. Measurements were performed in 5 replicates. […] The plate was centrifuged for 2 minutes at 600 rcf. After removing the sealing, the samples were measured at +25° C.

[3] = Solubility in buffer systems by UPLC-UV (Example 13); format: physicochemical
How it was run: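 Quantitation used UV peak area from UPLC of the 1:10-diluted supernatant, set against a reference-compound standard curve with extinction coefficients adjusted for amino acid sequence.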

CRF1R receptor = target: T2, CRF1R receptor (Homo sapiens, UniProt P34998); experiment: cAMP activity at anti-target CRF1R, CRF1R-overexpression CHO cell line (Example 9); format: cell-based; conditions: CRF1R-overexpression CHO cell line
T2 construct: host or cells: CHO-K1 clone 2
T2 sequence (P34998 24-415): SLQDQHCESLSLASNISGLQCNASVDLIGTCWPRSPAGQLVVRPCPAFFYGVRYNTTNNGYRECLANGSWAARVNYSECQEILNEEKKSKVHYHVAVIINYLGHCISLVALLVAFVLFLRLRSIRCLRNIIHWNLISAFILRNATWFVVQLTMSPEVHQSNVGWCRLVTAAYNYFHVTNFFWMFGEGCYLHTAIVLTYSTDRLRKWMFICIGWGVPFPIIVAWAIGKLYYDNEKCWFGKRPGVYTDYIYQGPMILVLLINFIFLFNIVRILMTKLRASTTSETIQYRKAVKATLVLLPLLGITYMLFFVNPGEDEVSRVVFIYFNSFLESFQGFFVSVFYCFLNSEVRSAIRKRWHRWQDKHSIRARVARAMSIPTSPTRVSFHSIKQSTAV
How it was run: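 Using thawed CRF1R-overexpressing CHO cells at 2000 per well, compound is applied for 30 min at RT in HBSS/HEPES buffer with IBMX. Cellular cAMP content is determined via HTRF, and percent activity is calculated against 1000 nM UCN2 defined as 100%.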

[4] = 0% HSA, read-out: EC50 [nM], 0% HSA
[5] = pH 7.4, Solubility in Buffer C [mg/ml]
[6] = 0.1% HSA, read-out: EC50 [nM], 0.1% HSA

SMILES: CC[C@H](C)[C@H](N)C(=O)N[C@H](C(=O)N[C@@H](CC(C)C)C(=O)N[C@@H](CO)C(=O)N[C@@H](CC(C)C)C(=O)N[C@@H](CC(=O)O)C(=O)N[C@@H](C(=O)N1CCC[C@H]1C(=O)N[C@H](C(=O)N[C@@H](CCCCN)C(=O)N[C@@H](CC(C)C)C(=O)N[C@@H](CCCCNC(=O)COCCOCCNC(=O)COCCOCCNC(=O)CC[C@H](NC(=O)CCCCCCCCCCCCCCCCC(=O)O)C(=O)O)C(=O)N[C@@H](CCC(N)=O)C(=O)N[C@@H](CCCCN)C(=O)N[C@@H](CC(C)C)C(=O)N[C@@H](CC(C)C)C(=O)N[C@@H](CCCCN)C(=O)N[C@@H](CCC(N)=O)C(=O)N[C@@H](CCC(=O)O)C(=O)N[C@@H](CCCNC(=N)N)C(=O)N[C@@H](CCC(N)=O)C(=O)N[C@@H](CCCNC(=N)N)C(=O)N[C@@H](CCCCN)C(=O)NC(C)(C)C(=O)N[C@@H](CCCNC(=N)N)C(=O)N[C@@H](CCC(=O)O)C(=O)N[C@@H](CCC(N)=O)C(=O)N[C@@H](C)C(=O)N[C@@H](CCC(=O)O)C(=O)N[C@@H](CCCCN)C(=O)N[C@@H](CC(N)=O)C(=O)N[C@@H](CCCCN)C(=O)N[C@@H](CCCNC(=N)N)C(=O)N[C@H](C(=O)N[C@@H](CC(C)C)C(=O)N[C@@H](CCC(=O)O)C(=O)N[C@@H](CCCNC(=N)N)C(=O)N[C@H](C(N)=O)C(C)C)[C@@H](C)CC)[C@@H](C)O)C(C)C)C(C)C [compound 36] (H-IVLSLD[dV]PTKLK([AEEA-AEEA-γGlu-C18 diacid])QKLLKQERQRK[Aib]REQAEKNKRILERV-NH2; N-terminus assumed)
- Relative purity loss [%] [1]: 3.65%
- EC50 (rat CRF2R α receptor): 13.3 nM
- EC50 (human CRF2α receptor; [4]): 1.45 nM
- Apparent Rh [nm] 0 weeks [2]: 1.42 ± 0.08 nm
- Scattering Intensity (I) [%] 0 weeks [2]: 88 ± 8%
- Apparent Rh [nm] 4 weeks [2]: 1.48 ± 0.11 nm
- Scattering Intensity (I) [%] 4 weeks [2]: 98 ± 2%
- solubility at 1 h [3, 5]: > 9700 µg/mL

SMILES: CC[C@H](C)[C@H](N)C(=O)N[C@H](C(=O)N[C@@H](CC(C)C)C(=O)N[C@@H](CO)C(=O)N[C@@H](CC(C)C)C(=O)N[C@@H](CC(=O)O)C(=O)N[C@@H](C(=O)N1CCC[C@H]1C(=O)N[C@H](C(=O)N[C@@H](CCCCN)C(=O)N[C@@H](CC(C)C)C(=O)N[C@@H](CCCCNC(=O)COCCOCCNC(=O)COCCOCCNC(=O)CC[C@H](NC(=O)CCCCCCCCCCCCCCCCC(=O)O)C(=O)O)C(=O)N[C@@H](CCC(N)=O)C(=O)N[C@H](C(=O)N[C@@H](CC(C)C)C(=O)N[C@@H](CC(C)C)C(=O)N[C@@H](CCCCN)C(=O)N[C@@H](CCC(N)=O)C(=O)N[C@@H](CCC(=O)O)C(=O)N[C@@H](CCCNC(=N)N)C(=O)N[C@@H](CCC(N)=O)C(=O)N[C@@H](CCCCN)C(=O)N[C@@H](CCCCN)C(=O)N[C@@H](CCC(N)=O)C(=O)N[C@@H](CCCNC(=N)N)C(=O)N[C@@H](CCC(=O)O)C(=O)N[C@@H](CCCCN)C(=O)N[C@@H](C)C(=O)N[C@@H](CCC(=O)O)C(=O)N[C@@H](CCCCN)C(=O)N[C@@H](CC(N)=O)C(=O)N[C@@H](CCCCN)C(=O)N[C@@H](CCC(N)=O)C(=O)N[C@H](C(=O)N[C@@H](CC(C)C)C(=O)N[C@@H](C)C(=O)N[C@@H](CCC(N)=O)C(=O)N[C@H](C(N)=O)C(C)C)[C@@H](C)CC)[C@@H](C)CC)[C@@H](C)CC)C(C)C)C(C)C [compound 138] (H-IVLSLD[dV]PIKLK([AEEA-AEEA-γGlu-C18 diacid])QILLKQERQKKQREKAEKNKQILAQV-NH2; N-terminus assumed)
- EC50 (CRF1R receptor; 0% HSA): > 1000 nM
- Emax (CRF1R receptor; read-out: Emax (%)): 4.38%
- Relative purity loss [%] [1]: 2.85%
- EC50 (rat CRF2R α receptor): 0.26 nM
- EC50 (human CRF2α receptor; [4]): 0.06 nM
- EC50 (human CRF2α receptor; [6]): 3.12 nM
- Apparent Rh [nm] 0 weeks [2]: 2.75 ± 0.19 nm
- Scattering Intensity (I) [%] 0 weeks [2]: 86 ± 4%
- Apparent Rh [nm] 4 weeks [2]: 2.82 ± 0.11 nm
- Scattering Intensity (I) [%] 4 weeks [2]: 84 ± 1%
- solubility at 1 h ([3]; pH 4.5, Solubility in Buffer A [mg/ml]): > 8600 µg/mL
- solubility at 1 h ([3]; pH 4.5, Solubility in Buffer B [mg/ml]): > 8700 µg/mL
- solubility at 1 h [3, 5]: 8200 µg/mL (≈ 1570 µM)

SMILES: CC[C@H](C)[C@H](N)C(=O)N[C@H](C(=O)N[C@@H](CC(C)C)C(=O)N[C@@H](CO)C(=O)N[C@@H](CC(C)C)C(=O)N[C@@H](CC(=O)O)C(=O)N[C@@H](C(=O)N1CCC[C@H]1C(=O)N[C@H](C(=O)N[C@@H](CCCCN)C(=O)N[C@@H](CC(C)C)C(=O)N[C@@H](CCCCNC(=O)COCCOCCNC(=O)COCCOCCNC(=O)CC[C@H](NC(=O)CCCCCCCCCCCCCCCCC(=O)O)C(=O)O)C(=O)N[C@@H](CCC(N)=O)C(=O)N[C@H](C(=O)N[C@@H](CC(C)C)C(=O)N[C@@H](CC(C)C)C(=O)N[C@@H](CCC(=O)O)C(=O)N[C@@H](CCC(N)=O)C(=O)N[C@@H](C)C(=O)N[C@@H](CCCNC(=N)N)C(=O)N[C@@H](CCC(N)=O)C(=O)N[C@@H](CCCCN)C(=O)NC(C)(C)C(=O)N[C@@H](CCC(N)=O)C(=O)N[C@@H](CCCNC(=N)N)C(=O)N[C@@H](C)C(=O)N[C@@H](CCC(N)=O)C(=O)N[C@@H](C)C(=O)N[C@@H](CCC(=O)O)C(=O)N[C@@H](CCCCN)C(=O)N[C@@H](CC(N)=O)C(=O)N[C@@H](CCCCN)C(=O)N[C@@H](CCCNC(=N)N)C(=O)N[C@H](C(=O)N[C@@H](CC(C)C)C(=O)N[C@@H](CCC(=O)O)C(=O)N[C@@H](CCCNC(=N)N)C(=O)N[C@H](C(N)=O)C(C)C)[C@@H](C)CC)[C@@H](C)CC)[C@@H](C)CC)C(C)C)C(C)C [compound 140] (H-IVLSLD[dV]PIKLK([AEEA-AEEA-γGlu-C18 diacid])QILLEQARQK[Aib]QRAQAEKNKRILERV-NH2; N-terminus assumed)
- Relative purity loss [%] [1]: 4.30%
- EC50 (rat CRF2R α receptor): 0.1 nM
- EC50 (human CRF2α receptor; [4]): 0.04 nM
- EC50 (human CRF2α receptor; [6]): 1.27 nM
